Experimental data from ChEMBL document CHEMBL1201862, “PubChem BioAssay data set” (2004).
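All cell lines were grown in 96-well plates and treated with compound for 48 hours. Abbreviation: GI50, concentration required for 50% inhibition of growth.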 Calls of active or inactive are those of the source. No stated cut-off is given here; in the data, active = GI50 up to about 1.1 µM and inactive = higher.

Assays:
Assay in all cases: inhibition of tumour cell growth, NCI panel, 48 h
[1] = system: SNB-75
[2] = system: A549
[3] = system: SR
[4] = system: SK-MEL-28
[5] = system: NCI/ADR-RES
[6] = system: K562
[7] = system: M14
[8] = system: NCI-H23
[9] = system: Hs-578T
[10] = system: MDA-MB-435
[11] = system: HOP-62
[12] = system: SF-295
[13] = system: LOX IMVI
[14] = system: HCT-116
[15] = system: SW-620
[16] = system: HCT-15
[17] = system: OVCAR-8
[18] = system: HOP-92
[19] = system: T47D
[20] = system: SF-539

Compound	GI50 [1]	GI50 [2]	GI50 [3]	GI50 [4]	GI50 [5]	GI50 [6]	GI50 [7]	GI50 [8]	GI50 [9]	GI50 [10]	GI50 [11]	GI50 [12]	GI50 [13]	GI50 [14]	GI50 [15]	GI50 [16]	GI50 [17]	GI50 [18]	GI50 [19]	GI50 [20]
COc1cc2oc(=O)cc(C)c2c(OC)c1OC	67.6 µM (inactive)	> 100 µM (inactive)	> 100 µM (inactive)	> 100 µM (inactive)	> 100 µM (inactive)	> 100 µM (inactive)	> 100 µM (inactive)	> 100 µM (inactive)	> 100 µM (inactive)	> 100 µM (inactive)	> 100 µM (inactive)	> 100 µM (inactive)	> 100 µM (inactive)	> 100 µM (inactive)	> 100 µM (inactive)	> 100 µM	> 100 µM (inactive)	–	–	–
Cc1ccsc1/C=N/Nc1nncc2ccccc12	> 100 µM (inactive)	96.4 µM (inactive)	–	> 100 µM (inactive)	> 100 µM (inactive)	> 100 µM (inactive)	> 100 µM (inactive)	> 100 µM (inactive)	> 100 µM (inactive)	> 100 µM (inactive)	> 100 µM (inactive)	> 100 µM (inactive)	97.1 µM (inactive)	> 100 µM (inactive)	> 100 µM (inactive)	> 100 µM	> 100 µM (inactive)	> 100 µM (inactive)	> 100 µM (inactive)	–
Cc1cn(CC2=NCC(O)CN2)c(=O)[nH]c1=O (centres undefined)	–	> 100 µM (inactive)	–	> 100 µM (inactive)	> 100 µM (inactive)	> 100 µM (inactive)	> 100 µM (inactive)	> 100 µM (inactive)	–	> 100 µM (inactive)	> 100 µM (inactive)	> 100 µM (inactive)	> 100 µM (inactive)	> 100 µM (inactive)	> 100 µM (inactive)	> 100 µM	> 100 µM (inactive)	> 100 µM (inactive)	> 100 µM (inactive)	> 100 µM (inactive)
CC(=O)Oc1ccc(N2C(=O)C3c4[nH]c5ccccc5c4C4CCC(C(C)(C)C)CC4C3C2=O)cc1 (centres undefined)	–	3.13 µM (inactive)	–	3.76 µM (inactive)	3.56 µM (inactive)	3.26 µM (inactive)	4.01 µM (inactive)	3.56 µM (inactive)	2.31 µM (inactive)	10.4 µM (inactive)	3.79 µM (inactive)	4.37 µM (inactive)	4.41 µM (inactive)	2.15 µM (inactive)	2.51 µM (inactive)	4.07 µM	3.84 µM (inactive)	3.03 µM (inactive)	–	5.01 µM (inactive)
COC(=O)c1nc2c3c(cccc3c1C(=O)OC)Nc1ccccc1-2	34.5 µM (inactive)	35.6 µM (inactive)	78.3 µM (inactive)	59.7 µM (inactive)	17.8 µM (inactive)	54.1 µM (inactive)	44.8 µM (inactive)	36 µM (inactive)	26.7 µM (inactive)	83.6 µM (inactive)	23.6 µM (inactive)	21.1 µM (inactive)	32.3 µM (inactive)	25.2 µM (inactive)	40.7 µM (inactive)	–	–	16.9 µM (inactive)	–	52.7 µM (inactive)
COc1cccc(-c2nc(-c3cnccn3)n(COCCO)n2)c1	–	> 100 µM (inactive)	> 100 µM (inactive)	> 100 µM (inactive)	> 100 µM (inactive)	> 100 µM (inactive)	> 100 µM (inactive)	> 100 µM (inactive)	–	> 100 µM (inactive)	> 100 µM (inactive)	> 100 µM (inactive)	> 100 µM (inactive)	> 100 µM (inactive)	> 100 µM (inactive)	> 100 µM	> 100 µM (inactive)	> 100 µM (inactive)	> 100 µM (inactive)	> 100 µM (inactive)
N/C(=N\c1cccc(Cl)c1)c1ccccc1N	> 100 µM (inactive)	> 100 µM (inactive)	> 100 µM (inactive)	> 100 µM (inactive)	> 100 µM (inactive)	> 100 µM (inactive)	> 100 µM (inactive)	> 100 µM (inactive)	> 100 µM (inactive)	> 100 µM (inactive)	> 100 µM (inactive)	> 100 µM (inactive)	> 100 µM (inactive)	> 100 µM (inactive)	> 100 µM (inactive)	> 100 µM	> 100 µM (inactive)	–	–	–
N#Cc1nc(C2=C(Cl)c3ccccc3OC2)[nH]c1C#N	–	33.3 µM (inactive)	–	23.2 µM (inactive)	41.1 µM (inactive)	22.2 µM (inactive)	19.4 µM (inactive)	25.1 µM (inactive)	38.3 µM (inactive)	–	–	–	16.9 µM (inactive)	–	24.7 µM (inactive)	34.8 µM	30.4 µM (inactive)	14.9 µM (inactive)	–	17.1 µM (inactive)
